Measured values taken from patent US20150018383A1, “BIOMARKERS OF RENAL DISORDERS” (Institut National de la Sante et de la Recherche Medicale …, priority 2011, published 2015).
“Also recorded” adds a separate entry of the source.

What was measured:
[1] = tested on: glomerular cells (TUNEL-positive nuclei); test: Glomerular TUNEL apoptosis assay in kidney transplant biopsies; assay type: in vivo, human; conditions: renal transplant recipients with lower eGFR, sirolimus-treated versus not treated
Procedure: (§1) The study was conducted on 80 renal transplant recipients followed at the Renal Transplant Department of Necker hospital.
Apoptosis was detected in 4-μm sections of paraffin-embedded kidneys by TUNEL assay using the In Situ Cell Death Detection kit (Roche) according to the manufacturer's protocol. The glomerular apoptotic index was calculated as the number of glomeruli with at least one TUNEL-positive nuclei for the total number of glomeruli. All the microscopic fields of a whole kidney section were quantified.

[2] = Urinary albumin excretion in renal transplant recipients; assay type: in vivo, human
Procedure: as §1
For human samples, urinary creatinine and albumin were determined using a Hitachi 917 analyzer (Roche Diagnostics), whereas plasma creatinine and sirolimus were evaluated using a Synchron Cx4 autoanalyser (Beckman Coulter) and high-performance liquid chromatography, respectively.

Q: With `CO[C@H]1C[C@@H]2CC[C@@H](C)[C@@](O)(O2)C(=O)C(=O)N2CCCC[C@H]2C(=O)O[C@H]([C@H](C)C[C@@H]2CC[C@@H](O)[C@H](OC)C2)CC(=O)[C@H](C)/C=C(\C)[C@@H](O)[C@@H](OC)C(=O)[C@H](C)C[C@H](C)/C=C/C=C/C=C/1C` [sirolimus] as the compound, how does the “glomerular apoptosis (TUNEL)” value [1] read?
A: The value was “marked increased of apoptosis; also recorded: increased glomerular apoptosis”.

Q: And the “development of albuminuria / proteinuria upon sirolimus treatment” value ([2]; cohort of kidney transplant recipients at different stages of renal failure)?
A: Its value is “only patients with severe nephron reduction developed albuminuria; also recorded: marked proteinuria”.

Q: And the “urinary albumin excretion, serial follow-up” value ([2]; patient 1, on sirolimus administration)?
A: The value was “severe albuminuria”.

Q: What about the “urinary albumin excretion, serial follow-up” value ([2]; patient 2, after removal of sirolimus) of the same compound?
A: Its value is “reversed albuminuria”.
